Earlier results in US20150328277A1 (Teva Pharmaceutical Industries, Ltd., priority 2012, published 2015).
Where two headings read alike, the source gives them in different places.

Tests used:
[1] = system: experimental autoimmune encephalomyelitis (EAE); conditions: orally administered; rats
[2] = system: relapsing multiple sclerosis; conditions: administered orally; clinical trial
[3] = system: multiple sclerosis; conditions: 20 mg/day subcutaneous (s.c.); MS patients
[4] = system: experimental autoimmune encephalomyelitis (EAE); conditions: orally administered; mice

L-glutamic acid polymer with L-alanine, L-lysine, L-tyrosine, acetate (salt) [glatiramer acetate]
induction of EAE [1]: inhibited the induction of experimental autoimmune encephalomyelitis (EAE) | relapse rate or other clinical MRI parameters of disease activity [2]: did not affect relapse rate or other clinical MRI parameters of disease activity | total number of enhancing lesions as measured by MRI [3]: reduce the total number of enhancing lesions | induction of EAE [4]: inhibited the induction of experimental autoimmune encephalomyelitis (EAE)
